Among the test systems are CAKI-1 renal; RPMI-8226 leukemia; TK-10 renal; OVCAR-4 ovarian; HT29 colon; SK-MEL-2 melanoma; K-562 leukemia; NCI-H23 lung; UACC-257 melanoma; HL-60(TB) leukemia.
What all share (assay): NCI tumour cell line growth inhibition, 48 h

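All cell lines were grown in 96-well plates and treated with compound for 48 hours. Abbreviation: GI50, concentration required for 50% inhibition of growth. TGI: total growth inhibition.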 Bounds are passed on as bounds.

Take `CCCCc1ccc2nc(NC(=O)OC)[nH]c2c1`: the GI50 with CAKI-1 renal is 0.0314 µM; in the test with RPMI-8226 leukemia, 0.0331 µM; in the test with TK-10 renal, 0.325 µM; in the test on OVCAR-4 ovarian it was 1.7 µM; with HT29 colon it was 0.0377 µM; in the test on SK-MEL-2 melanoma it was 0.789 µM. For the same compound, the GI50 in the test on K-562 leukemia was 0.0337 µM; with NCI-H23 lung it was 0.142 µM. Besides, the TGI was 12.9 µM in the test on CAKI-1 renal; 29.9 µM in the test on TK-10 renal; over 69.2 µM in the test on OVCAR-4 ovarian; over 62.1 µM in the test on SK-MEL-2 melanoma; over 100 µM with K-562 leukemia; over 100 µM with NCI-H23 lung.
Take `O=C(CC(O)(c1ccccc1)c1ccc(Cl)cc1)NC(=O)c1ccccc1O` (stereo not drawn): the TGI is 23.2 µM in the test on CAKI-1 renal; 41.2 µM in the test with TK-10 renal; 32.6 µM with UACC-257 melanoma; over 100 µM in the test with OVCAR-4 ovarian; 53 µM in the test with HT29 colon; 22.1 µM in the test on SK-MEL-2 melanoma. The TGI with K-562 leukemia was over 100 µM; in the test on HL-60(TB) leukemia, 25 µM; in the test with NCI-H23 lung it was 26.9 µM.
Take `CC(=O)O[C@@H]1C=CC(=O)C2(CC(=O)O[C@@H]2/C=C(\C)CCC=C(C)C)C1` (stereo partly drawn): the GI50 in the test on CAKI-1 renal was 0.744 µM; with TK-10 renal it was 1.67 µM; in the test on UACC-257 melanoma it was 1.03 µM; in the test with HT29 colon, 0.529 µM; with SK-MEL-2 melanoma, 1.51 µM; in the test with K-562 leukemia, 0.449 µM. Further, the GI50 was 0.184 µM in the test on HL-60(TB) leukemia and 0.365 µM in the test with NCI-H23 lung. The TGI in the test with CAKI-1 renal was found to be 2.3 µM; in the test on TK-10 renal, 3.71 µM; with UACC-257 melanoma, 2.6 µM; in the test with HT29 colon it was 73.9 µM; in the test with SK-MEL-2 melanoma, 4.43 µM; with HL-60(TB) leukemia it was 0.557 µM. In the test with NCI-H23 lung, this compound showed a TGI of 1.33 µM.
As to `[N-]=[N+]=Nc1ccc(S(=O)(=O)Oc2cc(OS(=O)(=O)c3ccc(N=[N+]=[N-])cc3)cc(OS(=O)(=O)c3ccc(N=[N+]=[N-])cc3)c2)cc1`, the TGI in the test with CAKI-1 renal is over 10 µM; in the test on RPMI-8226 leukemia, over 100 µM; in the test with TK-10 renal, over 100 µM; with UACC-257 melanoma, over 100 µM; in the test on OVCAR-4 ovarian it was over 10 µM; in the test with HT29 colon, over 100 µM. For the same compound, the TGI in the test with SK-MEL-2 melanoma, in the test with K-562 leukemia and with NCI-H23 lung was over 100 µM each time.
Consider `O=c1c(Cl)nsnc1Cl`, for which the TGI is 37.3 µM with CAKI-1 renal; 5.22 µM in the test with RPMI-8226 leukemia; 7.93 µM in the test with TK-10 renal; 26.8 µM in the test with UACC-257 melanoma; 49.4 µM with OVCAR-4 ovarian; 60.2 µM with HT29 colon. The figures for the TGI in the test with SK-MEL-2 melanoma, in the test on K-562 leukemia and with NCI-H23 lung were over 100 µM, 3.58 µM and 50.5 µM, respectively.
With `C1=C[C@@H]2c3ccc4cnccc4c3NC[C@@H]2C1`, the TGI in the test with RPMI-8226 leukemia, with TK-10 renal, with UACC-257 melanoma, in the test with K-562 leukemia, in the test on HL-60(TB) leukemia and with NCI-H23 lung was over 100 µM throughout.
Regarding `O=C1CCC/C=C\C[C@H]2C=C(Cl)C(=O)/C2=C/C[C@H](CCCCC(F)(F)F)OC(=O)CCC/C=C\C[C@H]2C=C(Cl)C(=O)/C2=C/C[C@H](CCCCC(F)(F)F)O1`, the GI50 in the test with RPMI-8226 leukemia was 0.177 µM; with TK-10 renal, 0.346 µM; with UACC-257 melanoma it was 0.685 µM; with OVCAR-4 ovarian it was 0.24 µM; in the test on HT29 colon it was 0.241 µM; in the test on SK-MEL-2 melanoma it was 0.329 µM. The results for the GI50 in the test with K-562 leukemia, with HL-60(TB) leukemia and with NCI-H23 lung were 0.184 µM, 0.362 µM and 0.236 µM, respectively. The TGI in the test on RPMI-8226 leukemia turned out to be 0.528 µM; with TK-10 renal it was 1.89 µM; with UACC-257 melanoma it was 2.3 µM; in the test on OVCAR-4 ovarian, 3.93 µM; in the test with HT29 colon, 0.807 µM; with SK-MEL-2 melanoma, 2.11 µM. The figures for the TGI with K-562 leukemia, with HL-60(TB) leukemia and in the test with NCI-H23 lung were 7.5 µM, 3.6 µM and 0.868 µM, respectively.
`COc1ccc(C(=O)O/N=C2\CCCC\C2=C/c2ccccc2)cc1`: the TGI in the test with CAKI-1 renal was over 100 µM; in the test with TK-10 renal it was over 100 µM; in the test with OVCAR-4 ovarian it was 95.8 µM; in the test with HT29 colon it was over 100 µM; with HL-60(TB) leukemia, over 100 µM; with NCI-H23 lung it was 41.5 µM.
Turning to `CCCCN(CCCC)C(=Nc1ccccc1)N(CCCC)CCCC`, the TGI in the test with RPMI-8226 leukemia is 4.42 µM; in the test on TK-10 renal, 34.4 µM; in the test with UACC-257 melanoma, 37.5 µM; in the test with HT29 colon, over 100 µM; in the test with SK-MEL-2 melanoma it was 18.9 µM; in the test with K-562 leukemia, 10.4 µM. The TGI with HL-60(TB) leukemia was found to be 4.09 µM; with NCI-H23 lung, 5.97 µM.
Turning to `Cc1ccc(S(=O)(=O)NCCCN(CCCNS(=O)(=O)c2ccc(C)cc2)S(=O)(=O)c2ccc(C)cc2)cc1`, the TGI in the test on RPMI-8226 leukemia, in the test on TK-10 renal, with UACC-257 melanoma, in the test on K-562 leukemia, in the test with HL-60(TB) leukemia and in the test on NCI-H23 lung was over 100 µM throughout.
On to `CN1CCC(O)C(CNC23CC4CC(CC(C4)C2)C3)C1` (stereo not drawn), for which the TGI in the test with CAKI-1 renal, with TK-10 renal, with UACC-257 melanoma, in the test on OVCAR-4 ovarian, with HT29 colon and in the test with SK-MEL-2 melanoma was over 100 µM throughout. Also, the TGI in the test on K-562 leukemia, with HL-60(TB) leukemia and in the test with NCI-H23 lung was over 100 µM each time.
On to `CN(C)CCCn1cnc2ncccc2c1=O`, for which the TGI in the test with CAKI-1 renal, in the test on TK-10 renal, with OVCAR-4 ovarian, with HT29 colon, in the test with SK-MEL-2 melanoma and in the test with K-562 leukemia was over 100 µM in each case. Besides, the TGI in the test on NCI-H23 lung was over 100 µM.
Take `Nc1nc2nc3c(nc2c(=O)[nH]1)CN(c1ccc(C(=O)O)cc1)C3=O`: the TGI in the test on CAKI-1 renal, with RPMI-8226 leukemia, in the test on TK-10 renal, with UACC-257 melanoma, in the test on OVCAR-4 ovarian and with HT29 colon was over 100 µM in each case. Besides, the TGI with SK-MEL-2 melanoma, with K-562 leukemia and in the test on NCI-H23 lung was over 100 µM each time.
Take `c1ccc([CH2][Sn]([CH2]c2ccccc2)([S]c2cccc3cccnc23)[S]c2cccc3cccnc23)cc1`: the GI50 in the test with CAKI-1 renal is 0.42 µM; in the test on TK-10 renal it was 0.326 µM; in the test on OVCAR-4 ovarian, 0.172 µM; in the test on HT29 colon, 0.175 µM; in the test with HL-60(TB) leukemia, 0.273 µM; with NCI-H23 lung it was 0.273 µM. Also, the TGI amounted to 1.02 µM with CAKI-1 renal; 1.06 µM with TK-10 renal; 0.422 µM with OVCAR-4 ovarian; 0.39 µM with HT29 colon; 0.687 µM in the test on HL-60(TB) leukemia; 0.998 µM with NCI-H23 lung.
Turning to `O=c1[nH]nc(-c2ccccc2)c(-c2ccccc2)c1-n1nc(-c2ccccc2)c2ccccc2c1=O`, the TGI in the test with CAKI-1 renal, in the test with RPMI-8226 leukemia, in the test on TK-10 renal, in the test with UACC-257 melanoma, in the test on OVCAR-4 ovarian and in the test on HT29 colon was over 100 µM in each case. The TGI in the test on SK-MEL-2 melanoma, in the test on K-562 leukemia and in the test with NCI-H23 lung was over 100 µM in each case.
Regarding `CC(C)NC(=O)OCc1nnn2c1C(OC(=O)NC(C)C)CC2` (stereo not drawn), the TGI with CAKI-1 renal, in the test on RPMI-8226 leukemia, in the test with TK-10 renal, in the test with UACC-257 melanoma, in the test on OVCAR-4 ovarian and in the test on HT29 colon was over 100 µM each time. In addition, the TGI in the test on SK-MEL-2 melanoma, with K-562 leukemia and in the test on NCI-H23 lung was over 100 µM each time.
For the compound `N#Cc1c([N+](=O)[O-])cc(C(F)(F)F)cc1[N+](=O)[O-]`, the TGI in the test on CAKI-1 renal is 8.94 µM; in the test on RPMI-8226 leukemia it was 6.28 µM; in the test on TK-10 renal, 18.1 µM; in the test on UACC-257 melanoma, 19.2 µM; with OVCAR-4 ovarian it was 5.57 µM; in the test on HT29 colon, 9.36 µM. Moreover, the TGI was 39.3 µM with SK-MEL-2 melanoma, 5.08 µM with K-562 leukemia and 19.2 µM in the test on NCI-H23 lung.
On to `COC(=O)C1Cc2c([nH]c3ccccc23)[C@H](CC(C)C)N1` (stereo partly drawn), for which the TGI in the test with RPMI-8226 leukemia, in the test with TK-10 renal, in the test with UACC-257 melanoma, with HT29 colon, with SK-MEL-2 melanoma and in the test on K-562 leukemia was over 100 µM each time. The TGI in the test with HL-60(TB) leukemia and in the test on NCI-H23 lung was over 100 µM each time.
On to `Clc1ccc(Cl)c(N/N=C\c2c[nH]c3ccccc23)c1`, for which the GI50 was 5.43 µM in the test with CAKI-1 renal; 6.16 µM in the test with RPMI-8226 leukemia; 12 µM in the test with TK-10 renal; 15.2 µM in the test with UACC-257 melanoma; 10.7 µM in the test with OVCAR-4 ovarian; 13.1 µM in the test on SK-MEL-2 melanoma. Besides, the GI50 in the test on K-562 leukemia is 1.83 µM; with NCI-H23 lung it was 14.1 µM. Further, the TGI is 19.6 µM with CAKI-1 renal; 26.1 µM in the test with RPMI-8226 leukemia; 26.8 µM in the test on TK-10 renal; 28.9 µM in the test with UACC-257 melanoma; 23 µM in the test with OVCAR-4 ovarian; 26.7 µM in the test on SK-MEL-2 melanoma. Besides, the TGI in the test on K-562 leukemia was determined as 17.7 µM; with NCI-H23 lung, 29.9 µM.
